Measured values as given in patent publication US20090215760A1, “SYNERGISTIC INSECTICIDE MIXTURES” (priority 2004, published 2009).

How the values were obtained:
Format in all cases: in vivo
[1] = test system: Myzus persicae; experiment: Myzus persicae test, cabbage leaf dip; settings: single active compound
Source text: (§1) The action expected for a given combination of two active components can be calculated as follows (cf. Colby, S. R., “Calculating Synergistic and Antagonistic Responses of Herbicide Combinations”, Weeds 15, pages 20-22, 1967):
(§2) if • X stands for the death rate expressed as % of the untreated controls on application of active component A at an applied amount of m ppm • Y for the death rate expressed as % of the untreated controls on application of active component B at an applied amount of n ppm • E for the death rate expressed as % of the untreated controls on application of active components A and B at applied amount of m and n ppm • then
(§3) If the actual insecticidal death rate is greater than calculated, the combination is superadditive in its death rate, i.e. there is a synergistic effect. In this case the death rate actually observed must be greater than the value for the expected death rate (E) calculated from the above equation.
(§4) To prepare a suitable formulation of the active material 1 part by weight of the active material is mixed with the given amounts of solvent and emulsifier and the concentrate is diluted to the desired concentration with water containing the emulsifier.
Cabbage leaves (Brassica oleracea) which are highly infected by the green peach aphid (Myzus persicae) are treated by dipping into the active mixture formulation of the desired concentration.
After the desired time the death rate is calculated as %, where 100% means that all aphids were killed, 0% that no aphids were killed. The death rates were calculated by the Colby equation.

[2] = test system: Plutella xylostella, normal sensitive strain; experiment: Plutella xylostella test (normal sensitive strain), cabbage leaf dip; settings: single active compound
Source text: as §1, §2, §3
Plutella xylostella Test (Normal Sensitive Strain)
as §4
Cabbage leaves (Brassica oleracea) are treated by dipping into the active mixture formulation at the desired concentration and infected with the caterpillar of the diamondback (cabbage) moth (Plutella xylostella, normal sensitive strain) while the leaves are still moist.
(§5) After the desired time the death rate is calculated as %, where 100% means that all caterpillars were killed, 0% that no caterpillars were killed. The death rates are calculated by the Colby equation.

[3] = test system: Spodoptera frugiperda; experiment: Spodoptera frugiperda test, cabbage leaf dip; settings: 4 ppm, single active compound
Source text: as §1, §2, §3
Spodoptera frugiperda Test […]
as §5

[4] = 4 ppm, 6 d (Table B, clothianidin series)

Structure (SMILES)	Death rate in % after 6 d [1, 4]	Death rate in % after 6 d ([2]; 4 ppm)	Death rate in % after 6 d [3]	also measured
CN/C(=N\[N+](=O)[O-])NCc1cnc(Cl)s1 [Clothianidin]	0%	10%	–	–
CC[S+]([O-])c1c(C#N)nn(-c2c(Cl)cc(C(F)(F)F)cc2Cl)c1N (stereo not drawn) [Ethiprole, ethiprole]	0%	0%	0%	Death rate in % after 6 d ([1]; 0.8 ppm, 6 d (Table B, imidacloprid series)): 0%; Death rate in % after 6 d ([1]; 4 ppm, 6 d (Table B, thiacloprid series)): 10%; Death rate in % after 4 d ([2]; 20 ppm): 35%
O=[N+]([O-])/N=C1\NCCN1Cc1ccc(Cl)nc1 [Imidacloprid]	–	–	15%	Death rate in % after 6 d ([1]; 0.16 ppm, 6 d (Table B, imidacloprid series)): 0%
N#C/N=C1\SCCN1Cc1ccc(Cl)nc1 [Thiacloprid]	–	–	–	Death rate in % after 6 d ([1]; 0.8 ppm, 6 d (Table B, thiacloprid series)): 15%; Death rate in % after 4 d ([2]; 4 ppm): 0%
